According to ChEMBL document CHEMBL5696442, “Discovery of type II inhibitors of TGFβ-activated kinase 1 (TAK1) and mitogen-activated protein kinase kinase kinase kinase 2 (MAP4K2)” (J Med Chem, 2015):
Active and inactive are the calls of the source. The calls are words filed in the database; no cut-off is given here.

How the values were obtained:
[1] = target: Serine/threonine-protein kinase tousled-like 2 (Homo sapiens) (UniProt Q86UE8); assay: Inhibition of TLK2 Lys1 labeling site in human A-375 cells at 0.5 uM by KiNativ Profiling analysis relative to control; type: cell-based
Sequence of Serine/threonine-protein kinase tousled-like 2 (Homo sapiens) (Q86UE8 whole entry, looked up): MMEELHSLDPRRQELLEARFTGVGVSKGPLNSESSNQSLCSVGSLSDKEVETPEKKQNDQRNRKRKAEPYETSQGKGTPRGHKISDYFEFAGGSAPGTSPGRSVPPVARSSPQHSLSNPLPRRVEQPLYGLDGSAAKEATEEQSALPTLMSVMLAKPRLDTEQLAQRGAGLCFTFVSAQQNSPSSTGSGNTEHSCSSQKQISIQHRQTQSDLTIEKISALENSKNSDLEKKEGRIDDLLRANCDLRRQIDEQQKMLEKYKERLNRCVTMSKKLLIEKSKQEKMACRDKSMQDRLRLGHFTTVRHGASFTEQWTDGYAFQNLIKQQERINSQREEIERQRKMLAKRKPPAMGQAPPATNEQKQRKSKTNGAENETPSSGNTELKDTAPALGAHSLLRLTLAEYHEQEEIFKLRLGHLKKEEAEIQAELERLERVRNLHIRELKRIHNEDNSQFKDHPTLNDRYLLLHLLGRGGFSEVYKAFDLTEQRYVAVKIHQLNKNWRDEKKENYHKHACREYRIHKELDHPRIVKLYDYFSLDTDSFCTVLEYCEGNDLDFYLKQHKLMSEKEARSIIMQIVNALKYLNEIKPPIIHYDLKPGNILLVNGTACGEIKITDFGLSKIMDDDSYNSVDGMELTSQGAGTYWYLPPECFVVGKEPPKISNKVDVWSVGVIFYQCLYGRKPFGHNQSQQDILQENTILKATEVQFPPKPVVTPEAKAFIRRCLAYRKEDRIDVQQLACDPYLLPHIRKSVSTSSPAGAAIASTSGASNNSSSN

[2] = Inhibition of p70S6K Lys2 labeling site in human A-375 cells at 0.5 uM by KiNativ Profiling analysis relative to control; conditions: condition cancer
[3] = target: Cyclin-dependent kinase 4 (Homo sapiens) (UniProt P11802); assay: Inhibition of CDK4 Lys2 labeling site in human A-375 cells at 0.05 uM by KiNativ Profiling analysis relative to control; type: cell-based
Sequence of Cyclin-dependent kinase 4 (Homo sapiens) (P11802 whole entry): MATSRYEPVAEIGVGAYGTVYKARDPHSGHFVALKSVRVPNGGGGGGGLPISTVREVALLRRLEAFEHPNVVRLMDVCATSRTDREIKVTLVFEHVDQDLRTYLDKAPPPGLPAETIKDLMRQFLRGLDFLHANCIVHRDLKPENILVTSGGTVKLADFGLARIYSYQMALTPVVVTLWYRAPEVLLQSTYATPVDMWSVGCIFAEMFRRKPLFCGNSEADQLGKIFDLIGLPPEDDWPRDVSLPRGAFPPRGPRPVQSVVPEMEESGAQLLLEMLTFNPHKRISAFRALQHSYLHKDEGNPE

[4] = target: Tyrosine-protein kinase Lyn (Homo sapiens, UniProt P07948); assay: Inhibition of LYN (unknown origin) at 1 uM by Ambit Kinomescan binding assay relative to control; values are per cent of control
Sequence of Tyrosine-protein kinase Lyn (P07948 2-512 limits assumed): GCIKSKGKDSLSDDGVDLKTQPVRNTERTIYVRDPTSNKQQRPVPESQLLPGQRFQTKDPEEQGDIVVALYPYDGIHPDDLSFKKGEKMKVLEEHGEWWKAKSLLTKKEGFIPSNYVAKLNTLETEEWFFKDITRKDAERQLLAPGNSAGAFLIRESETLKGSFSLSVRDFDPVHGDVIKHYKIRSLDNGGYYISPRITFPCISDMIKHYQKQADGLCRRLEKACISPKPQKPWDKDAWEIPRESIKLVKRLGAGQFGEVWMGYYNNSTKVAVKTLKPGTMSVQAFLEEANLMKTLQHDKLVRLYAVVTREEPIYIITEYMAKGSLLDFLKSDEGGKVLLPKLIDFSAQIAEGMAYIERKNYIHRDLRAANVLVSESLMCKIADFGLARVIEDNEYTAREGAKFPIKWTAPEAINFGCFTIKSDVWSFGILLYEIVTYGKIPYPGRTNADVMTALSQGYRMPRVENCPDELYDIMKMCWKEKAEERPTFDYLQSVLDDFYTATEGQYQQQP

[5] = target: Serine/threonine-protein kinase WNK4 (Homo sapiens) (UniProt Q96J92); assay: Inhibition of Wnk4 Lys2 labeling site in human A-375 cells at 0.5 uM by KiNativ Profiling analysis relative to control; type: cell-based
[6] = target: Tyrosine-protein kinase Lck (Homo sapiens) (UniProt P06239); assay: Inhibition of LCK (unknown origin) at 10 uM by Ambit Kinomescan binding assay relative to control
Sequence of Tyrosine-protein kinase Lck (Homo sapiens) (P06239 2-509 limits assumed): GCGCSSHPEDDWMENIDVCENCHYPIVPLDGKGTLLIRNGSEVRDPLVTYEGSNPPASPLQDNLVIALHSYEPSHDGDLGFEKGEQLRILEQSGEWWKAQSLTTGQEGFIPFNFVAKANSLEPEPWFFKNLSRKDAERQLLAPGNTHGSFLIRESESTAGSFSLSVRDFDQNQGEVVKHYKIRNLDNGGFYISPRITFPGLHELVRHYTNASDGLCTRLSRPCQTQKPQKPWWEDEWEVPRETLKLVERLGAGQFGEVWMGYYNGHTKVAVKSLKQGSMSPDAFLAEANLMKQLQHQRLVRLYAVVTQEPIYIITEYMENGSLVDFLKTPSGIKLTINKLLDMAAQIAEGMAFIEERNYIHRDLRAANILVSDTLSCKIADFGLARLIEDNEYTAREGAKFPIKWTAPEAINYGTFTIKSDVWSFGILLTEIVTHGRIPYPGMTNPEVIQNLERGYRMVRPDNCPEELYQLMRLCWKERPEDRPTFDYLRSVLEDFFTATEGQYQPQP

[7] = target: MAP/microtubule affinity-regulating kinase 4 (Homo sapiens) (UniProt Q96L34); assay: Inhibition of MARK4 (unknown origin) at 10 uM by Ambit Kinomescan binding assay
Sequence of MAP/microtubule affinity-regulating kinase 4 (Homo sapiens) (Q96L34 whole entry): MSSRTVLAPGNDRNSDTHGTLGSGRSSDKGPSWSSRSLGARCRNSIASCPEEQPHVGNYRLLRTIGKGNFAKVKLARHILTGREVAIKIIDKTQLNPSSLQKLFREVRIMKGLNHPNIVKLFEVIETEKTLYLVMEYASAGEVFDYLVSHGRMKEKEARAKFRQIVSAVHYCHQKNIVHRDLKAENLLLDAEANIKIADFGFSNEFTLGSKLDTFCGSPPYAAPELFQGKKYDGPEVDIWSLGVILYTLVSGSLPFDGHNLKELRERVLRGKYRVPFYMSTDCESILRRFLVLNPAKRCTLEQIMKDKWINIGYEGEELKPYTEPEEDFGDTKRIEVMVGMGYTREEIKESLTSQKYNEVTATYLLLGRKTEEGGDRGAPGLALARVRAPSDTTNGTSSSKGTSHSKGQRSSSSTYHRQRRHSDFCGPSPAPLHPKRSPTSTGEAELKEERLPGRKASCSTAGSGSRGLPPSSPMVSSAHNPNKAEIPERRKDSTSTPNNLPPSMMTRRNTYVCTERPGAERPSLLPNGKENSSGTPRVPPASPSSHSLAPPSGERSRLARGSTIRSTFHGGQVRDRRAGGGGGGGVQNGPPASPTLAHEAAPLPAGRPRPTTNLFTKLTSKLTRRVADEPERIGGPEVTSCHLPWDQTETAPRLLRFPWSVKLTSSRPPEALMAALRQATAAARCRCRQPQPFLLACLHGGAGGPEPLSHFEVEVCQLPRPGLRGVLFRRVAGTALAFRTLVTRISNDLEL

[8] = target: T1, Serine/threonine-protein kinase LATS1 (Homo sapiens) (UniProt O95835); assay: Inhibition of LATS1 Lys2 labeling site in human A-375 cells at 0.5 uM by KiNativ Profiling analysis relative to control; type: cell-based
T1 sequence (whole entry): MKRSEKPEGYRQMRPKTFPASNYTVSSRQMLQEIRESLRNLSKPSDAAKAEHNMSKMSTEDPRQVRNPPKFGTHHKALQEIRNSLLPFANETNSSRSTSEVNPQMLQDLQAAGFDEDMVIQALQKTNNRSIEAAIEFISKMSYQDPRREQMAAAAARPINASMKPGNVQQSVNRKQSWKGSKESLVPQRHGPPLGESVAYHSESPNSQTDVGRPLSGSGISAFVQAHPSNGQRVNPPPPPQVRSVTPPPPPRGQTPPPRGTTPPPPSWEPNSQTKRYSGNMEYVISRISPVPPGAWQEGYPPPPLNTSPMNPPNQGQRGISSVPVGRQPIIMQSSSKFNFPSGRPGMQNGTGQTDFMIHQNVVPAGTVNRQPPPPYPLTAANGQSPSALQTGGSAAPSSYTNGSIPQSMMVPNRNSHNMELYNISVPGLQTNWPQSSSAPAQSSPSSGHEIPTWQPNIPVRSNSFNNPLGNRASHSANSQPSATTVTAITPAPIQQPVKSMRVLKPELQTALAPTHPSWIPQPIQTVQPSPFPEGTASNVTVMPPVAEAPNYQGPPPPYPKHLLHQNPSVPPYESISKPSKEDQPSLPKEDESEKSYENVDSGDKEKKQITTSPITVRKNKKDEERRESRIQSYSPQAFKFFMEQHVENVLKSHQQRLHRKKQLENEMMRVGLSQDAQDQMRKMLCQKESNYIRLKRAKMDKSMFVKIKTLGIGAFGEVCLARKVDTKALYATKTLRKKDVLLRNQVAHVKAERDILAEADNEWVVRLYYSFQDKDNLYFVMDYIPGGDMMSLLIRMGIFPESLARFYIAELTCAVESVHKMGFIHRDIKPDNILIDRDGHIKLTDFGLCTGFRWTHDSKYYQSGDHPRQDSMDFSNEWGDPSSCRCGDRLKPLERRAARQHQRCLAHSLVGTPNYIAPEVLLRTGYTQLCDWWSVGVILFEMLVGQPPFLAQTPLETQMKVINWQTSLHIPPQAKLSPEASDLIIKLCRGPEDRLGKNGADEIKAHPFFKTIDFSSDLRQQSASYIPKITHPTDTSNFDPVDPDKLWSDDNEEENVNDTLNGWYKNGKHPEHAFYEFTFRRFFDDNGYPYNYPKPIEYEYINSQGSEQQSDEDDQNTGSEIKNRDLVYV

[9] = target: Myosin-IIIb (Homo sapiens) (UniProt Q8WXR4); assay: Inhibition of MYO3B (unknown origin) at 10 uM by Ambit Kinomescan binding assay relative to control
Sequence of Myosin-IIIb (Homo sapiens) (Q8WXR4 whole entry): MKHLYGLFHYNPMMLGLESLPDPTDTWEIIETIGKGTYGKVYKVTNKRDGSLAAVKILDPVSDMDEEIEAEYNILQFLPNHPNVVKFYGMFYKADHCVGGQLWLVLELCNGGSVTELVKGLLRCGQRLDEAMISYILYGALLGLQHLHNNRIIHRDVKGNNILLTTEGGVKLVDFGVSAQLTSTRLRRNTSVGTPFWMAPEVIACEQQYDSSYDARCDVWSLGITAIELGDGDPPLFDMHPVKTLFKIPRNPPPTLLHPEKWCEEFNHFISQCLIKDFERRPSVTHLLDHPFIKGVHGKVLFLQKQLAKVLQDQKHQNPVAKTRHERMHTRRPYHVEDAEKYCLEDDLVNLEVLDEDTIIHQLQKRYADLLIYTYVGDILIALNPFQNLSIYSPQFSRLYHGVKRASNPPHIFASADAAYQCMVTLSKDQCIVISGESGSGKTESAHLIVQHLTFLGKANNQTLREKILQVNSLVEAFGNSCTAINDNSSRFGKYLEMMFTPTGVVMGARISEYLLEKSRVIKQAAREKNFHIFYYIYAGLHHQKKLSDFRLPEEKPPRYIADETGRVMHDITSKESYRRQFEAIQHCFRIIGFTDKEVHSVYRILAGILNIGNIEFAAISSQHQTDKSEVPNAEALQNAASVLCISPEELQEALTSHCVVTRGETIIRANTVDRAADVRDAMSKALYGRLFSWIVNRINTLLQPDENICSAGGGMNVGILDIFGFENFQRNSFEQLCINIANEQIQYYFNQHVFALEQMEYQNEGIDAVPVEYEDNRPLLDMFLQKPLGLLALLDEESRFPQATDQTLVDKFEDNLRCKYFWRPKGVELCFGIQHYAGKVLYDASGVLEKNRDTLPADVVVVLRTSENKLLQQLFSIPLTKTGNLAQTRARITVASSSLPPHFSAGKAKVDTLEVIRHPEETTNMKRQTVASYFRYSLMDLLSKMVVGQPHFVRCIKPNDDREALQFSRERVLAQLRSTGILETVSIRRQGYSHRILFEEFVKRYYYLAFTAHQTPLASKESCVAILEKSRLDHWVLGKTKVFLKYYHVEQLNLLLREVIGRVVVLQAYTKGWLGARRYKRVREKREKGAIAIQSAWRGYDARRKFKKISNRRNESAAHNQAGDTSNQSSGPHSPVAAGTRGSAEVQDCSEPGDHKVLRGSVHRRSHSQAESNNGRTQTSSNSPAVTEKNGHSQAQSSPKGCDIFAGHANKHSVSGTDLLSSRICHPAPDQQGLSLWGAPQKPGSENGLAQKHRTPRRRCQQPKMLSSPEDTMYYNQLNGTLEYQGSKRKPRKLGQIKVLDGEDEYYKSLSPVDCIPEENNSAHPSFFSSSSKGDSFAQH

[10] = target: p38 delta/gamma (Homo sapiens) (UniProt O15264+P53778); assay: Inhibition of p38d/g K2 labeling site in human Huh-7 cells at 1 uM by KiNativ Profiling analysis relative to control; type: cell-based
[11] = target: T2, Mitogen-activated protein kinase kinase kinase kinase 2 (Homo sapiens) (UniProt Q12851); assay: Inhibition of MAP4K2 (GCK) Lys1 labeling site in human Huh-7 cells at 1 uM by KiNativ Profiling analysis relative to control; type: cell-based
T2 sequence (whole entry): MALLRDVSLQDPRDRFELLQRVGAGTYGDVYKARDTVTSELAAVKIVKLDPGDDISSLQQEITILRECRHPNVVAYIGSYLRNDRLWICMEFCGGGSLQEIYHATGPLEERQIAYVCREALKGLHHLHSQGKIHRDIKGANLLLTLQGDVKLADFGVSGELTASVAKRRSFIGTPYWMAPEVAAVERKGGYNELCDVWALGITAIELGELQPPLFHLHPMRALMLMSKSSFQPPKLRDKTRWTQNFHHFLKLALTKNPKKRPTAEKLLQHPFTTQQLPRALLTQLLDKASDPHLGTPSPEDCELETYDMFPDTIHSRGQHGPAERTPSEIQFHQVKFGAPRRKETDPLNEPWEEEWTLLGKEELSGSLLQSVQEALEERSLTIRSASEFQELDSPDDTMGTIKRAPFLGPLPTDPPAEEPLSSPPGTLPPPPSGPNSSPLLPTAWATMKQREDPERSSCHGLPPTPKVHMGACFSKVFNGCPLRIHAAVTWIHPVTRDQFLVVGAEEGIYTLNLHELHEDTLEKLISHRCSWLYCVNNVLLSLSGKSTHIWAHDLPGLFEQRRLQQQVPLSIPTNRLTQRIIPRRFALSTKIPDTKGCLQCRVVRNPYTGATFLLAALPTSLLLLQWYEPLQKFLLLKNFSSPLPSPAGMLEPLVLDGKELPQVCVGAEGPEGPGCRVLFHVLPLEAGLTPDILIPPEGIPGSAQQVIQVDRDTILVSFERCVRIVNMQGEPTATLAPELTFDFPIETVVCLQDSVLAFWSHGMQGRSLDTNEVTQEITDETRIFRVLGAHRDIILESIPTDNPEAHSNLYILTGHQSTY

[12] = target: Cyclin-dependent kinase 2 (Homo sapiens) (UniProt P24941); assay: Inhibition of CDK2 Lys1 labeling site in human Huh-7 cells at 1 uM by KiNativ Profiling analysis relative to control; type: cell-based
[13] = target: Putative phosphatidylinositol 4-kinase alpha-like protein P2 (Homo sapiens) (UniProt A4QPH2); assay: Inhibition of PI4KAP2 ATP labeling site in human Huh-7 cells at 1 uM by KiNativ Profiling analysis relative to control; type: cell-based
Sequence of Putative phosphatidylinositol 4-kinase alpha-like protein P2 (Homo sapiens) (A4QPH2 whole entry): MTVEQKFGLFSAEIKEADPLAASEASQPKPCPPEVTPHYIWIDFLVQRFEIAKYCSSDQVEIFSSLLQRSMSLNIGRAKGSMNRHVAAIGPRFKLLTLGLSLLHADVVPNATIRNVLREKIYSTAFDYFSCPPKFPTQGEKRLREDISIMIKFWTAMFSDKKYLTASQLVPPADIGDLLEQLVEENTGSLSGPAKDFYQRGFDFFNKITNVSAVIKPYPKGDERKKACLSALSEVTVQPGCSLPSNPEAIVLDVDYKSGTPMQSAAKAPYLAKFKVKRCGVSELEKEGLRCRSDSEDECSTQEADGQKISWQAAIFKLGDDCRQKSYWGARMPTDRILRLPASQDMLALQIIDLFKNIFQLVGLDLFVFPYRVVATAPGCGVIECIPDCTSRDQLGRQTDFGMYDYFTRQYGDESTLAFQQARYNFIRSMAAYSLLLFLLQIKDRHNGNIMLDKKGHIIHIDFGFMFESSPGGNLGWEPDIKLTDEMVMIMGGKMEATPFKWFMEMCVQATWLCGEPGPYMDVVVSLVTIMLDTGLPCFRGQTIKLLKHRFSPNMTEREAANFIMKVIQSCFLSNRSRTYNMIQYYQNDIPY

SMILES: CCN1CCN(Cc2ccc(NC(=O)c3ccc(C)c(/C=C/c4cnc5[nH]ccc5c4OC)c3)cc2C(F)(F)F)CC1
- inhibition [1]: 30.2%
- inhibition at 0.5 µM [2]: -32.9%
- inhibition [3]: -10%
- % of control [4]: 0.45%

SMILES: CCN1CCN(Cc2ccc(NC(=O)c3ccc(C)c(Oc4ccnc5[nH]ccc45)c3)cc2C(F)(F)F)CC1
- inhibition [5]: 7.9%
- inhibition [6]: 0.8%
- inhibition [7]: inactive
- inhibition [8]: -1.1%
- inhibition [9]: 4.8%
- inhibition [10]: 25.2%

SMILES: CNc1cc(Oc2cc(C(=O)Nc3cc(N4CCN(C)CC4)cc(C(F)(F)F)c3)ccc2C)ncn1
- inhibition [11]: 88.3%
- inhibition [12]: -5.7%
- inhibition [13]: 29.8%
